Test results from US9695155B2, “Herbicidal substituted pyrimidinyloxy benzene compounds” (E. I. DU PONT DE NEMOURS AND COMPANY, priority 2013, dated 2017).

Columns and labels:
ragweed = assay: Test A preemergence; format: in vivo, Ambrosia elatior
In short: (§1)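 Visual 0–100 rating (100 = complete control) taken about 10 d post-treatment relative to untreated checks. Preemergence: directed soil spray on sown loam/sand pots. Postemergence: seedlings 2–10 cm, 1–2 leaf. Non-phytotoxic solvent formulation with surfactant.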

Italian ryegrass [1] = assay: Test A preemergence; format: in vivo, Lolium multiflorum
In short: as §1

Italian ryegrass [2] = assay: Test A postemergence; format: in vivo, Lolium multiflorum; details: 0 to 100 scale where 0 is no effect and 100 is complete control
In short: as §1

giant foxtail = assay: Test A postemergence; format: in vivo, Setaria faberii; details: 0 to 100 scale where 0 is no effect and 100 is complete control
In short: as §1

corn = assay: Test A postemergence; format: in vivo, Zea mays
In short: as §1

blackgrass = assay: Test A postemergence; format: in vivo, Alopecurus myosuroides
In short: as §1

galium = assay: Test A postemergence; format: in vivo, Galium aparine; details: 0 to 100 scale where 0 is no effect and 100 is complete control
In short: as §1

large (Lg) crabgrass = assay: Test C preemergence; format: in vivo, Digitaria sanguinalis; details: for Crabgrass, Large plant response rating: preemergence
In short: (§2)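 Greenhouse herbicide screen. Pre: seeded loam/sand, sprayed at planting. Post: 1–4 leaf plants (2–18 cm) in peat-based mix. Formulation: solvent mixture + surfactant, non-phytotoxic. Readout: visual % control vs untreated, 13–15 d; dash = not tested.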

yellow nutsedge = assay: Test C preemergence; format: in vivo, Cyperus esculentus; details: for Nutsedge, Yellow plant response rating: preemergence
In short: as §2

pigweed [3] = assay: Test C preemergence; format: in vivo, Amaranthus retroflexus; details: for Pigweed plant response rating: preemergence
In short: as §2

waterhemp = assay: Test C preemergence; format: in vivo, Amaranthus rudis; details: for Waterhemp plant response rating: preemergence
In short: as §2

Italian ryegrass [4] = assay: Test C postemergence; format: in vivo, Lolium multiflorum; details: for Plant response rating, Ryegrass, Italian: Postemergence, scale 0 to 100 (0 no effect, 100 complete control)
In short: as §2

pigweed [5] = assay: Test C postemergence; format: in vivo, Amaranthus retroflexus; details: for Plant response rating, Pigweed: Postemergence, scale 0 to 100 (0 no effect, 100 complete control)
In short: as §2

kochia = assay: Test C postemergence; format: in vivo, Kochia scoparia; details: for Plant response rating, Kochia: Postemergence
In short: as §2

velvetleaf = assay: Test C postemergence; format: in vivo, Abutilon theophrasti; details: for Plant response rating, Velvetleaf: Postemergence, scale 0 to 100 (0 no effect, 100 complete control)
In short: as §2

chickweed = assay: Test C postemergence; format: in vivo, Stellaria media; details: for Plant response rating, Chickweed: Postemergence
In short: as §2

[6] = 125 g ai/ha, 0 to 100 scale where 0 is no effect and 100 is complete control
[7] = 500 g ai/ha, 0 to 100 scale, 0 no effect, 100 complete control, approx. 10 days
[8] = 500 g ai/ha, 0 to 100 scale, 0 no effect, 100 complete control
[9] = 16 g ai/ha, scale 0 to 100 (0 no effect, 100 complete control)
[10] = 62 g ai/ha, scale 0 (no effect) to 100 (complete control)
[11] = 125 g ai/ha, scale 0 (no effect) to 100 (complete control)
[12] = Preemergence, 31 g ai/ha, scale 0 to 100, 0 no effect, 100 complete control
[13] = 16 g ai/ha, postemergence, visual rating, scale 0 to 100 (0 no effect, 100 complete control), 13 to 15 days
[14] = 31 g ai/ha, scale 0 to 100 (0 no effect, 100 complete control), 13 to 15 days
[15] = 62 g ai/ha, scale 0 to 100 (0 no effect, 100 complete control)

## CC(C)c1cnn(-c2c(C#N)cccc2Oc2ncc(Cl)cn2)c1 [Compound 85]
ragweed; [6]
  Plant response rating, Ragweed: 40
ragweed; [7]
  Ragweed plant response rating: 60
Italian ryegrass [1]; [6]
  Plant response rating, Ryegrass, Italian: 0
Italian ryegrass [1]; [7]
  Ryegrass, Italian plant response rating: 40
Italian ryegrass [2]; 125 g ai/ha
  Plant response rating, Ryegrass, Italian: 60
Italian ryegrass [2]; 500 g ai/ha
  Plant response rating, Ryegrass, Italian: 100
Giant foxtail; 125 g ai/ha
  Plant response rating, Foxtail, Giant: 70
Giant foxtail; 500 g ai/ha
  Plant response rating, Foxtail, Giant: 90
corn; [6]
  Plant response rating, Corn: 30
corn; [8]
  Plant response rating, Corn: 70
blackgrass; [6]
  Plant response rating, Blackgrass: 70
blackgrass; [8]
  Plant response rating, Blackgrass: 80
galium; 125 g ai/ha
  Plant response rating, Galium: 90
galium; 500 g ai/ha
  Plant response rating, Galium: 100
Large (Lg) crabgrass; [9]
  Crabgrass, Large plant response rating: 65
Large (Lg) crabgrass; [10]
  Crabgrass, Large plant response rating: 100
Large (Lg) crabgrass; [11]
  Crabgrass, Large plant response rating: 100
Large (Lg) crabgrass; [12]
  Plant response rating, Crabgrass, Large: 90
Yellow nutsedge; [9]
  Nutsedge, Yellow plant response rating: 0
Yellow nutsedge; [10]
  Nutsedge, Yellow plant response rating: 5
Yellow nutsedge; [11]
  Nutsedge, Yellow plant response rating: 20
Yellow nutsedge; [12]
  Plant response rating, Nutsedge, Yellow: 0
Pigweed [3]; [9]
  Pigweed plant response rating: 50
Pigweed [3]; [10]
  Pigweed plant response rating: 100
Pigweed [3]; [11]
  Pigweed plant response rating: 100
Pigweed [3]; [12]
  Plant response rating, Pigweed: 40
waterhemp; [9]
  Waterhemp plant response rating: 55
waterhemp; [10]
  Waterhemp plant response rating: 100
waterhemp; [11]
  Waterhemp plant response rating: 100
waterhemp; [12]
  Plant response rating, Waterhemp: 85
Italian ryegrass [4]; 125 g ai/ha, postemergence
  Plant response rating (0 to 100), Ryegrass, Italian: 5
Italian ryegrass [4]; 31 g ai/ha, 13 to 15 days
  Plant response rating, Ryegrass, Italian: 0
Italian ryegrass [4]; 62 g ai/ha
  Plant response rating, Ryegrass, Italian: 0
Pigweed [5]; 125 g ai/ha, postemergence
  Plant response rating (0 to 100), Pigweed: 70
Pigweed [5]; 31 g ai/ha, 13 to 15 days
  Plant response rating, Pigweed: 55
Pigweed [5]; 62 g ai/ha
  Plant response rating, Pigweed: 70
kochia; [13]
  Kochia plant response rating: 50
kochia; 125 g ai/ha, postemergence
  Plant response rating (0 to 100), Kochia: 90
kochia; [14]
  Plant response rating, Kochia: 50
kochia; [15]
  Plant response rating, Kochia: 80
velvetleaf; 125 g ai/ha, postemergence
  Plant response rating (0 to 100), Velvetleaf: 55
velvetleaf; 31 g ai/ha, 13 to 15 days
  Plant response rating, Velvetleaf: 45
velvetleaf; 62 g ai/ha
  Plant response rating, Velvetleaf: 45
chickweed; [13]
  Chickweed plant response rating: 5
chickweed; 125 g ai/ha, postemergence
  Plant response rating (0 to 100), Chickweed: 40
chickweed; [14]
  Plant response rating, Chickweed: 40
chickweed; [15]
  Plant response rating, Chickweed: 50
